Results: patent US10265307B2, “Thiazolecarboxamides and pyridinecarboxamide compounds useful as Pim kinase inhibitors” (Incyte Corporation, priority 2013, dated 2019)
Where two headings read alike, the source gives them in different places.

Tests used:
Format in all cases: biochemical
Pim-1 = Pim-1 (Homo sapiens (Human), UniProt P11309); test: Pim-1 kinase assay; settings: 1 mM ATP; read-out: Pim1 IC50
Method: Supplementation of the STOP buffer with beads and stopping the reactions were done under reduced light. Prior to the stopping reactions STOP buffer with beads was pre-incubated for 1 h in the dark at room temperature. After stopping the reactions, plates were incubated for 1 h in the dark at room temperature before reading on a PHERAstar FS plate reader (BMG Labtech) under reduced light.

Pim-2 = Pim-2 (Homo sapiens (Human), UniProt Q9P1W9); test: Pim-2 kinase assay
Pim-2, sequence (Q9P1W9 whole entry): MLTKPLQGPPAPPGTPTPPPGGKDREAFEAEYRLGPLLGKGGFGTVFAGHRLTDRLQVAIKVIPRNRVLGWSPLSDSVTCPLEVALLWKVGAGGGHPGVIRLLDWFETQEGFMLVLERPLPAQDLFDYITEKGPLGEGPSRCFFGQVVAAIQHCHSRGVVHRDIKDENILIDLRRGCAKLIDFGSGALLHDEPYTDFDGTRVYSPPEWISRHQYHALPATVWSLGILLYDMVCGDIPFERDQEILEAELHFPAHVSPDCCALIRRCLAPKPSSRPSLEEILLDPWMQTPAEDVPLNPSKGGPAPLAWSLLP
Method: Pim-2 kinase assay-20 μL reactions were run in white 384 well polystyrene plates dotted with 0.8 μL compound/DMSO in the assay buffer (50 mM Tris, pH 7.5, 0.01% Tween-20, 5 mM MgCl2, 0.01% BSA, 5 mM DTT), containing 0.05 μM Fluorescein-labeled CREBtide peptide substrate (Invitrogen PV3508), 1 mM ATP, and 1 nM enzyme (Invitrogen PV3649) for 2 h at 25° C. Reactions were stopped by addition of 10 μL TR-FRET Dilution Buffer (Invitrogen PV3574) with 30 mM EDTA and 1.5 nM LanthaScreen Tb-CREB pSer133 antibody (Invitrogen PV3566). After 30 min. incubation at room temperature, plates were read on a PHERAstar FS plate reader (BMG Labtech).
Although the above in vitro assays are conducted at 1 mM ATP compounds can also be evaluated for potency and in vitro activity against PIM targets utilizing Km conditions, where the concentration of ATP is set to the Km value and the assay is more sensitive to PIM inhibition activity.

Pim-3 = Pim-3 (Homo sapiens (Human), UniProt Q86V86); test: Pim-3 kinase assay; settings: 1 mM ATP; read-out: Pim3 IC50
Method: Pim-1 and Pim-3 kinase assays-20 μL reactions were run in white 384 well polystyrene plates dotted with 0.8 μL compound/DMSO in the assay buffer (50 mM Tris, pH 7.5, 0.01% Tween-20, 5 mM MgCl2, 0.01% BSA, 5 mM DTT), containing 0.05 μM Biotin-labeled BAD peptide substrate (AnaSpec 62269), 1 mM ATP, and […] (Pim-1, Invitrogen PV3503) or […] (Pim-3, Millipore 14-738) enzyme for 1 h at 25° C. Reactions were stopped by addition of 10 μL STOP Buffer (150 mM Tris, pH=7.5, 150 mM NaCl, 75 mM EDTA, 0.01% Tween-20, 0.3% BSA) supplemented with Phospho-Bad (Ser112) Antibody (Cell Signaling 9291) diluted 666-fold, and Streptavidin donor beads (PerkinElmer 6760002) along with Protein-A acceptor beads (PerkinElmer 6760137) at 15 μg/mL each. Supplementation of the STOP buffer with beads and stopping the reactions were done under reduced light. Prior to the stopping reactions STOP buffer with beads was pre-incubated for 1 h in the dark at room temperature. After stopping the reactions, plates were incubated for 1 h in the dark at room temperature before reading on a PHERAstar FS plate reader (BMG Labtech) under reduced light.

Pim-1, sequence (P11309 whole entry): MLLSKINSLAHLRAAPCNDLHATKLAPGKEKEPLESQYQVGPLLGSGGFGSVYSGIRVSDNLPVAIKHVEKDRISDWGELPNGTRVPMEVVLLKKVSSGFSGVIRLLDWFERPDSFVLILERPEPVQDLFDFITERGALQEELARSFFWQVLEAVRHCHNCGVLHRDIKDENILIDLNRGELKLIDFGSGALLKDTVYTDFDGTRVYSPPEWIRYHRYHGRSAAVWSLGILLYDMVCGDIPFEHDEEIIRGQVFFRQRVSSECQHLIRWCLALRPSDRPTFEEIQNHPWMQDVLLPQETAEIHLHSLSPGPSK

Row | Structure (SMILES) | IC50 (Pim-1) [nM] | IC50 (Pim-2; 1 mM ATP, read-out: Pim2 IC50) [nM] | IC50 (Pim-3) [nM] | IC50 (Pim-2; Km ATP concentration rather than 1 mM, read-out: Pim2 IC50 at Km ATP concentration) [nM]
1 | CC(C)(O)c1cc(F)c(-c2nc(C(=O)Nc3cnc4c(c3N3C[C@@H](N)C[C@@H](C(F)(F)F)C3)CCC4O)ccc2F)c(F)c1 (single isomer, unassigned) [72 (Diastereoisomer 2)] | ≤ 100 | ≤ 100 | ≤ 100 | 
2 | COc1ccc(F)c(-c2nc(C(=O)Nc3cnc4c(c3N3C[C@H](C)C[C@H](N)C3)CCC4O)c(N)s2)c1F (single isomer, unassigned) [54 (Diastereoisomer 2)] | ≤ 100 | ≤ 100 | ≤ 100 | 
3 | Nc1sc(-c2c(F)cccc2F)nc1C(=O)Nc1cnc2c(c1N1CC[C@H](O)[C@H](N)C1)CCC2 (single isomer, unassigned) [Example 27, 5-Amino-N-{4-[3.4-cis-3-amino-4-hydroxypiperidin-1-yl]-6,7-dihydro-5H-cyclopenta[b]pyridin-3-yl}-2-(2,6-difluorophenyl)-1,3-thiazole-4-carboxamide] | ≤ 100 | ≤ 100 | ≤ 100 | 
4 | CC(C)(O)c1cc(F)c(-c2nc(C(=O)Nc3cnc4c(c3N3C[C@@H](N)C[C@@H](C(F)(F)F)C3)CCC4O)ccc2F)c(F)c1 (single isomer, unassigned) [72 (Diastereoisomer 1)] | ≤ 100 | ≤ 100 | ≤ 100 | 
5 | COc1ccc(F)c(-c2nc(C(=O)Nc3cnc4c(c3N3C[C@H](C)C[C@H](N)C3)CCC4O)c(N)s2)c1F (single isomer, unassigned) [54 (Diastereoisomer 1)] | ≤ 100 | ≤ 100 | ≤ 100 | 
6 | C[C@H]1CN(c2c(NC(=O)c3ccc(F)c(-c4c(F)cc(C(C)(C)O)cc4F)n3)cnc3c2CCO3)C[C@@H](N)[C@@H]1O [Example 65, N-{4-[(3R,4R,5S)-3-Amino-4-hydroxy-5-methylpiperidin-1-yl]-2,3-dihydrofuro[2,3-b]pyridin-5-yl}-6-[2,6-difluoro-4-(1-hydroxy-1-methylethyl)phenyl]-5-fluoropyridine-2-carboxamide] | ≤ 100 | ≤ 100 | ≤ 100 | 
7 | Nc1sc(-c2c(F)cccc2F)nc1C(=O)Nc1cnc2c(c1N1C[C@@H](N)C[C@@H](C(F)(F)F)C1)CCO2 [Example 42, 5-Amino-N-{4-[(3S,5R)-3-amino-5-(trifluoromethyl)piperidin-1-yl]-2,3-dihydrofuro[2,3-b]pyridin-5-yl}-2-(2,6-difluorophenyl)-1,3-thiazole-4-carboxamide] | ≤ 100 | ≤ 100 | ≤ 100 | 
8 | Nc1sc(-c2c(F)cccc2F)nc1C(=O)Nc1cnc2ccsc2c1N1CC[C@@H](O)[C@H](N)C1 (single isomer, unassigned) [Example 29, 5-Amino-N-{7-[3,4-trans-3-amino-4-hydroxypiperidin-1-yl]thieno[3,2-b]pyridin-6-yl}-2-(2,6-difluorophenyl)-1,3-thiazole-4-carboxamide] | ≤ 100 | 100 to 1000 | ≤ 100 | 
9 | Nc1sc(-c2c(F)cccc2F)nc1C(=O)Nc1cnc2ccccc2c1N1CCC[C@H](N)C1 [Example 1, 5-Amino-N-{4-[(3S)-3-aminopiperidin-1-yl]quinolin-3-yl}-2-(2,6-difluorophenyl)-1,3-thiazole-4-carboxamide] | ≤ 100 | 277 | ≤ 100 | 
10 | Nc1sc(-c2c(F)cccc2F)nc1C(=O)Nc1cnc2ccsc2c1N1CC[C@H](O)[C@H](N)C1 (single isomer, unassigned) [Example 30, 5-Amino-N-{7-[3.4-cis-3-amino-4-hydroxypiperidin-1-yl]thieno[3,2-b]pyridin-6-yl}-2-(2,6-difluorophenyl)-1,3-thiazole-4-carboxamide] | ≤ 100 | 100 to 1000 | ≤ 100 | 
11 | Nc1sc(-c2c(F)cccc2F)nc1C(=O)Nc1cnc2c(c1N1CCC[C@H](N)C1)CCC2O (single isomer, unassigned) [15 (Diastereoisomer 2)] | ≤ 100 | ≤ 100 | ≤ 100 | 
12 | N[C@H]1CCCN(c2c(NC(=O)c3ccc(F)c(-c4c(F)cccc4F)n3)cnc3c2CCC3O)C1 (single isomer, unassigned) [22 (Diastereoisomer 2)] | ≤ 100 | ≤ 100 | ≤ 100 | 
13 | N[C@H]1CCCN(c2c(NC(=O)c3csc(-c4c(F)cccc4F)n3)cnc3c2CCC3O)C1 (single isomer, unassigned) [16 (Diastereoisomer 2)] | ≤ 100 | > 2000 | ≤ 100 | 
14 | C[C@@H]1C[C@H](N)CN(c2c(NC(=O)c3nc(-c4c(F)cccc4F)sc3N)cnc3c2CCO3)C1 [Example 36, 5-Amino-N-{4-[(3S,5R)-3-amino-5-methylpiperidin-1-yl]-2,3-dihydrofuro[2,3-b]pyridin-5-yl}-2-(2,6-difluorophenyl)-1,3-thiazole-4-carboxamide] | ≤ 100 | ≤ 100 | ≤ 100 | 
15 | C[C@@H]1C[C@H](N)CN(c2c(NC(=O)c3ccc(F)c(-c4c(F)cc(C(C)(C)O)cc4F)n3)cnc3c2CCC3O)C1 (single isomer, unassigned) [67 (Diastereoisomer 1)] | ≤ 100 | ≤ 100 | ≤ 100 | 
16 | C[C@H]1CN(c2c(NC(=O)c3ccc(F)c(-c4c(F)cccc4F)n3)cnc3c2CCC3O)C[C@@H](N)[C@@H]1O (single isomer, unassigned) [37 (Diastereoisomer 2)] | ≤ 100 | ≤ 100 | ≤ 100 | 
17 | N[C@H]1CCCN(c2c(NC(=O)c3csc(-c4c(F)cccc4F)n3)cnc3sccc23)C1 [Example 4, N-{4-[(3S)-3-Aminopiperidin-1-yl]thieno[2,3-b]pyridin-5-yl}-2-(2,6-difluorophenyl)-1,3-thiazole-4-carboxamide] | ≤ 100 | > 2000 | ≤ 100 | 
18 | C[C@@H]1C[C@H](N)CN(c2c(NC(=O)c3nc(-c4c(F)cccc4F)c(F)cc3N)cnc3c2CCO3)C1 [Example 38, 3-Amino-N-{4-[(3S,5R)-3-amino-5-methylpiperidin-1-yl]-2,3-dihydrofuro[2,3-b]pyridin-5-yl}-6-(2,6-difluorophenyl)-5-fluoropyridine-2-carboxamide] | ≤ 100 | ≤ 100 | ≤ 100 | 
19 | COc1ccc(F)c(-c2nc(C(=O)Nc3cnc4c(c3N3CCC[C@H](N)C3)CCC4O)c(N)s2)c1F (single isomer, unassigned) [53 (Diastereoisomer 2)] | ≤ 100 | ≤ 100 | ≤ 100 | 
20 | COCc1cc(F)c(-c2nc(C(=O)Nc3cnc4c(c3N3C[C@H](C)C[C@H](N)C3)CCC4O)ccc2F)c(F)c1 (single isomer, unassigned) [64 (Diastereoisomer 2)] | ≤ 100 | ≤ 100 | ≤ 100 | 
21 | C[S+]([O-])c1cc(F)c(-c2nc(C(=O)Nc3cnc4c(c3N3CCC[C@H](N)C3)CCC4O)ccc2F)c(F)c1 (single isomer, unassigned) [59 (Diastereoisomer 2)] | ≤ 100 | 100 to 1000 | ≤ 100 | 
22 | N[C@H]1CCCN(c2c(NC(=O)c3csc(-c4c(F)cccc4F)n3)cnc3c2CCC3)C1 [Example 13, N-{4-[(3S)-3-Aminopiperidin-1-yl]-6,7-dihydro-5H-cyclopenta[b]pyridin-3-yl}-2-(2,6-difluorophenyl)-1,3-thiazole-4-carboxamide] | ≤ 100 | > 2000 | ≤ 100 | 
23 | Nc1sc(-c2c(F)cccc2F)nc1C(=O)Nc1cnc2[nH]ccc2c1N1CCC[C@H](N)C1 [Example 7, 5-Amino-N-{4-[(3S)-3-aminopiperidin-1-yl]-1H-pyrrolo[2,3-b]pyridin-5-yl}-2-(2,6-difluorophenyl)-1,3-thiazole-4-carboxamide] | ≤ 100 | ≤ 100 | ≤ 100 | 
24 | N[C@H]1CCCN(c2c(NC(=O)c3csc(-c4c(F)cccc4F)n3)cnc3[nH]ncc23)C1 [compound 35] |  |  |  | 1000 to 10000
